Assay results published in patent publication US10772967B2, “Enhanced anticancer agent” (priority 2014, dated 2020).
Like-named read-outs stand apart in the source and are kept apart here. Blank lines part the entries; values can stand above or below the compound they belong to.

What was measured:
[1] = Pharmacokinetic profile of Conj3 and Conj4 in rats; conditions: i.v.
Procedure: (§1) The concentration of test compounds in plasma was determined using validated HPLC method and plotted as a function of time after dosing. Concentrations are expressed as means (±SEM).
(§2) Jugular vein cannulated Sprague-Dawley male rats (200-220 g, 49-52 days old) were used for this study. An extension catheter was attached to the indwelling jugular vein cannula to facilitate remote sampling. The animals were randomly divided into two groups (N=3 or 4): control group and treatment group. […] Simultaneously, the control group was pretreated with vehicle (sterile water) followed by a single combined intravenous dose of molar equivalent of all test compounds as described above. Plasma was collected from each rat and precipitated using 2× solvent B (95:5, Methanol-Water, 0.1% TFA).

[2] = Stability against proteolytic hydrolysis in human serum; conditions: human serum pre-incubated with AG10 (10 μM)
From the text: The amounts of compounds remaining in serum were quantitated at different time-points.

[3] = Chemical stability in serum and simulated gastric acid; format: in vitro ADME; conditions: at least 48 h
From the text: Therefore, TLHE1 is a very good candidate for conjugation to peptides.

[4] = rat, in vivo, iv
Procedure: as §1, §2

[5] = test system: T1, trypsin; assay: Trypsin cleavage experiment in buffer, 7-AMC release; format: biochemical; conditions: hTTR present
T1 construct: purchased Gibco TrypLE Express
Procedure: We used trypsin to test the ability of hTTR to protect TLHE1-peptide conjugate (Conj1) from proteolysis in buffer. FIG. 14 illustrates the protection effect of binding to TTR on the stability of Conj1 in vitro. hTTR protects Conj1 against trypsin hydrolysis in buffer, according to some embodiments.
AFU is arbitrary fluorescence units.
The experiment was performed in quadruplicate.

[6] = Dose escalation of AG10 in rats, plasma concentration; conditions: i.v., initial rapid decline of total plasma concentration
Procedure: Adult male Wistar rats, body weight ranging 160-200 g, were used for the study. […] Blood samples were collected at 0.08, 2, 4, 8, and 24 hour time intervals. The plasma samples were prepared by centrifugation at 15,000 RPM for 5 min. The resultant plasma was precipitated using 2× solvent B (95:5, Methanol-Water, 0.1% TFA).

T1 sequence (P35049 25-248): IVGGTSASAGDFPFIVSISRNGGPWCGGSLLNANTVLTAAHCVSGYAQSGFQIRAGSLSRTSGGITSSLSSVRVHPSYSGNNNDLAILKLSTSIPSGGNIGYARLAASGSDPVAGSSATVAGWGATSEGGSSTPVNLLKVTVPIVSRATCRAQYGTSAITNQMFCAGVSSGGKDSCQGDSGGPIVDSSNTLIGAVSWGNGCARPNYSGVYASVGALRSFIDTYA

SMILES: Cc1n[nH]c(C)c1CCCOc1cc(OCCCc2cn(CCOCCOCCOCCC(=O)NCCCCC(NC(=O)C(Cc3ccc(O)cc3)NC(=O)C(CO)NC(=O)C(Cc3c[nH]c4ccccc34)NC(=O)C(Cc3c[nH]cn3)NC(=O)C3CCC(=O)N3)C(=O)NC(CC(C)C)C(=O)NC(CCCNC(=N)N)C(=O)N3CCCC3C(=O)NCC(N)=O)nn2)cc(C(=O)O)c1 (centres unmarked) [Conj4]
time present in circulation [1]: at least 12 h

SMILES: CC[C@H](C)[C@H](NC(=O)[C@H](Cc1ccc(O)cc1)NC(=O)[C@@H]1CCCN1C(=O)[C@H](CCCNC(=N)N)NC(=O)[C@H](CCCNC(=N)N)NC(=O)[C@@H]1CCCN1C(=O)[C@H](CCCCN)NC(=O)[C@H](CC(N)=O)NC(=O)[C@H](CCC(=O)O)NC(=O)[C@H](Cc1ccc(O)cc1)NC(=O)[C@H](CC(C)C)NC(=O)[C@H](CCC(=O)O)NC(=O)CCOCCOCCOCCn1cc(CCCOc2cc(OCCCc3c(C)n[nH]c3C)cc(C(=O)O)c2)nn1)C(=O)N[C@@H](CC(C)C)C(=O)O [Conj2]
amount remaining after 24 h in serum pre-incubated with AG10 ([2]; 24 h): no detectable amount

SMILES: Cc1n[nH]c(C)c1CCCOc1cc(OCCCc2cn(CCOCCOCCOCCC(=O)NC(CCC(=O)O)C(=O)NC(Cc3c[nH]cn3)C(=O)NC(Cc3c[nH]c4ccccc34)C(=O)NC(CO)C(=O)NC(Cc3ccc(O)cc3)C(=O)NCC(=O)NC(CC(C)C)C(=O)NC(CCCNC(=N)N)C(=O)N3CCCC3C(=O)NCC(N)=O)nn2)cc(C(=O)O)c1 (centres unmarked) [Conj3]
amount remaining after 48 h in serum pre-incubated with AG10 ([2]; 48 h): no detectable amount

SMILES: CC(C)C[C@H](NC(=O)[C@@H](CCCCNC(=O)CCOCCOCCOCCN=[N+]=[N-])NC(=O)[C@H](Cc1ccc(O)cc1)NC(=O)[C@H](CO)NC(=O)[C@H](Cc1c[nH]c2ccccc12)NC(=O)[C@H](Cc1c[nH]cn1)NC(=O)[C@@H]1CCC(=O)N1)C(=O)N[C@@H](CCCNC(=N)N)C(=O)N1CCC[C@H]1C(=O)NCC(N)=O [GnRH-A-Linker]
plasma levels after 2 h of administration [4]: no detectable levels

SMILES: Cc1cc(=O)oc2cc(NC(=O)C(CCCCN)NC(=O)CNC(=O)C(CCCNC(=N)N)NC(=O)CCOCCOCCOCCN=[N+]=[N-])ccc12 (stereo not drawn) [Arg-Gly-Lys-MCA]
protection against proteolysis in the presence of hTTR (in words) [5]: no protection against proteolysis

SMILES: CC(C)C[C@H](NC(=O)[C@@H](CCCCN)NC(=O)[C@H](Cc1ccc(O)cc1)NC(=O)[C@H](CO)NC(=O)[C@H](Cc1c[nH]c2ccccc12)NC(=O)[C@H](Cc1cnc[nH]1)NC(=O)[C@@H]1CCC(=O)N1)C(=O)N[C@@H](CCCNC(=N)N)C(=O)N1CCC[C@H]1C(=O)NCC(N)=O [GnRH-A, reference compound]
plasma levels after 2 h of administration [1]: no detectable levels

Results, then the compound that gave them:

degradation [3]: < 3%
SMILES: C#CCCCOc1cc(OCCCc2c(C)n[nH]c2C)cc(C(=O)O)c1 [TLHE1, 3-(3-(3,5-dimethyl-1H-pyrazol-4-yl)propoxy)-5-(pent-4-yn-1-yloxy)benzoic Acid]

initial half-life [6]: 5 to 20 min
SMILES: Cc1n[nH]c(C)c1CCCOc1cc(C(=O)O)ccc1F [AG10]
